Test results from patent US6372209B1, “Vaginal lactobacillus medicant” (Gyne Logix, Inc., priority 1997, dated 2002).

Tests used:
[1] = Accelerated shelf-life of the air-dried suppository at 35, 45 and 55° C.; type: physicochemical; conditions: for loss of viability: over about 2.3 days
Experimental: Strain CTV-05 was tested in a gelatin capsule suppository during storage at 55° C., 45° C., 35° C. and at room and refrigeration temperatures. […] Between the fourth and ninth weeks counts dropped to 9.8×10^7 per suppository and have remained at 10^7 for 25 months.
At 35° C., the product lost less than 1 log of viability over about 2.3 days. At 45° C., the product lost about 2 logs of viability over about 2.3 days. At 55° C., the product lost viability rapidly within 0.5 days.

normal, healthy women = experiment: Open study: vaginal colonization of healthy women by suppository; type: in vivo, human
Text: In this open study, a Lactobacillus suppository containing approximately 10^9 viable, H2O2-producing Lactobacillus crispatus CTV-05 was used by 9 women twice daily for three days. All 9 women were free of genital infection at enrollment, and 8 of the 9 women had endogenous Lactobacilli at enrollment.
Since many women are colonized vaginally and rectally by Lactobacilli, the technique, Repetitive Sequence Polymerase Chain Reaction (Rep PCR), was used to “fingerprint” the suppository strain of L. crispatus and thereby distinguish the suppository strain from endogenous strains of Lactobacilli.

[2] = tested on: vaginal epithelial cells (VECs); experiment: In vitro adherence to vaginal epithelial cells (frozen VECs, McIlvaine's buffer pH 4.5, Gram stain count); type: cell-based, human; conditions: for average adherence value: 8 VEC donors
Experimental: (1.2) Adherence to vaginal epithelial cells (VECs): Immediately after sampling, vaginal epithelial cells were transferred to MEM tissue culture medium, pH 7.2, washed 3 times in a syringe and passed through a 8μ filter (Millipore) which retains vaginal cells but passes bacteria. A total of 10^5 washed vaginal cells were added to a suspension of 10^9 Lactobacilli/ml (enumerated with a counting chamber) and incubated for 2.5 hours at 37° C. After washing and filtering to remove unattached Lactobacilli, the vaginal cells were stained using Gram stain. The number of Lactobacilli that adhered to the epithelial cells was counted and recorded using a light microscope equipped with a camera. Both the mean number of Lactobacilli cells adhered per VEC (average adherence value) and the percent VEC cohesion value, as described above, were calculated. The percent VEC cohesion value, defined as the percentage of VECs to which at least one Lactobacillus cell is adhered of the total number of VECs in an identified group, was used to determine whether a particular strain would be selected as having a desirable adherence characteristic. Since ongoing adherence studies required a constant supply of vaginal epithelial cells, the vaginal epithelial cells were pre-washed and stored at −70° C. until time of use.
Table 1 and Table 2 show the in vitro adherence studies using frozen VECs from donors representing the most prevalent ABO blood types. […] Strain CTV-05 (Lot LB-022) was preserved in suppository format as described in detail in Example 3. Suppositories were stored at both room (RT) and refrigerator (Ref.) temperatures for 5.5 months prior to testing. It is important to note that the cells of strain CTV-05 used in these studies were not in an actively growing metabolic state. Rather, a suppository containing CTV-05 was placed directly into McIlvaine's buffer (pH 4.5) without pregrowing the microbial cells to an active state. The cells were then directly added to VECs. Results are shown as (1) the logarithmic mean adherence of CTV-05 per 50 VECs (X ±1 standard deviation), (2) as the actual range of adhered CTV-05 per VEC in a total count of 50 VECs, and (3) as the percent VEC cohesion value (% VEC ADH). The description of terms in Table 1 is as follows: ^1X±STD=logarithmic mean adherence of LAB per 50 VEC, +1 standard deviation; ^2 Range=actual range of adhered LAB per VEC in a total count of 50 VECs; ^3% VEC ADH=percent of 50 VECs showing adherence of LAB strain CTV-05, Lot LB-022, stored for 5.5 months at refrigerated (Ref.) and/or room temperature (RT); and *Nursing Mother.
The buffer was then added directly to previously frozen VECs from human donors. Actively growing CTV-05 was also added to previously frozen VECs.

[3] = Active LAB, donor A+, cycle day 3, Gram stain score 4
[4] = Active LAB, donor A+, cycle day 17, Gram stain score 9
[5] = Active LAB, donor A+, cycle day 37, Gram stain score 8
[6] = Active LAB, donor AB+, cycle day 24, Gram stain score 4
[7] = Active LAB, donor A−, cycle day 8 mos., Gram stain score 4
[8] = Active LAB, donor B+, cycle day 13, Gram stain score 9
[9] = Active LAB, donor O+, cycle day 7, Gram stain score 2
[10] = Active LAB, donor O+, cycle day 7, Gram stain score 4
[11] = Active LAB, donor O+, cycle day 15, Gram stain score 2
[12] = Active LAB, donor O+, cycle day 20, Gram stain score 6
[13] = Active LAB, frozen VECs, 10 donors
[14] = Inactive LAB, Agar, donor A+, cycle day 3, Gram stain score 4
[15] = Inactive LAB, Agar, donor A+, cycle day 37, Gram stain score 8
[16] = Inactive LAB, Agar, donor AB+, cycle day 24, Gram stain score 4
[17] = Inactive LAB, Agar, donor B+, cycle day 13, Gram stain score 9
[18] = Inactive LAB, Agar, donor O+, cycle day 7, Gram stain score 2
[19] = Inactive LAB, Agar, donor O+, cycle day 15, Gram stain score 2
[20] = Inactive LAB, Agar, donor O+, cycle day 20, Gram stain score 6
[21] = Inactive LAB, Agar, frozen VECs
[22] = Inactive LAB, Broth, donor A+, cycle day 3, Gram stain score 4
[23] = Inactive LAB, Broth, donor A+, cycle day 17, Gram stain score 9
[24] = Inactive LAB, Broth, donor A+, cycle day 37, Gram stain score 8
[25] = Inactive LAB, Broth, donor AB+, cycle day 24, Gram stain score 4
[26] = Inactive LAB, Broth, donor A−, cycle day 8 mos., Gram stain score 4
[27] = Inactive LAB, Broth, donor B+, cycle day 13, Gram stain score 9
[28] = Inactive LAB, Broth, donor O+, cycle day 7, Gram stain score 2
[29] = Inactive LAB, Broth, donor O+, cycle day 7, Gram stain score 4
[30] = Inactive LAB, Broth, donor O+, cycle day 15, Gram stain score 2
[31] = Inactive LAB, Broth, donor O+, cycle day 20, Gram stain score 6
[32] = Inactive LAB, Broth, frozen VECs, 10 donors

## Lactobacillus crispatus CTV-05
[1]; 35° C.
  loss of viability: less than 1 log
[1]; 45° C.
  loss of viability: about 2 logs
[1]; 55° C.
  time within which viability was rapidly lost: ≤ 0.5 days
normal, healthy women; 9 women
  inflammation, microscopically (white blood cells on vaginal smear): None of the women had evidence of inflammation
  side effects: none complained of side effects
normal, healthy women; 9 women, approximately 10^9 viable cells twice daily for three days, 2-3 days after last capsule
  women colonized by the suppository strain: all of the women were colonized
normal, healthy women; 9 women, at 1 month
  women remaining colonized: 8 of 9
normal, healthy women; four weeks later
  vaginal colonization, Patient 103: still colonized with CTV-05
normal, healthy women; one month visit
  vaginal colonization, Patient 102: still colonized by L. crispatus CTV-05
normal, healthy women; one week after use twice daily for 3 days
  vaginal colonization, Patient 103: colonized by CTV-05 as well as by another strain of Lactobacilli
normal, healthy women; one week visit after use of the suppository
  vaginal colonization, Patient 102: colonized by three strains of Lactobacilli, which included (1) the suppository strain
normal, healthy women; one year after enrollment
  vaginal colonization, Patient 102: colonized exclusively by the suppository strain
[2]; [3]
  % VEC ADH: 94%
  X ± 1 STD (logarithmic mean adherence of LAB per 50 VEC): 17.7 ± 3.2
[2]; [4]
  % VEC ADH: 66%
  X ± 1 STD (logarithmic mean adherence of LAB per 50 VEC): 13.0 ± 5.0
[2]; [5]
  % VEC ADH: 94%
  Range (adhered LAB per VEC): 0-133 LAB per VEC
  X ± 1 STD (logarithmic mean adherence of LAB per 50 VEC): 8.5 ± 3.3
[2]; [6]
  % VEC ADH: 70%
  Range (adhered LAB per VEC): 0-109 LAB per VEC
  X ± 1 STD (logarithmic mean adherence of LAB per 50 VEC): 5.1 ± 3.4
[2]; [7]
  % VEC ADH: 96%
  X ± 1 STD (logarithmic mean adherence of LAB per 50 VEC): 52.1 ± 3.6
[2]; [8]
  % VEC ADH: 68%
  Range (adhered LAB per VEC): 0-61 LAB per VEC
  X ± 1 STD (logarithmic mean adherence of LAB per 50 VEC): 5.7 ± 3.3
[2]; [9]
  % VEC ADH: 94%
  X ± 1 STD (logarithmic mean adherence of LAB per 50 VEC): 51.9 ± 3.0
[2]; [10]
  % VEC ADH: 92%
  X ± 1 STD (logarithmic mean adherence of LAB per 50 VEC): 36.3 ± 2.7
[2]; [11]
  % VEC ADH: 96%
  Range (adhered LAB per VEC): 0-216 LAB per VEC
  X ± 1 STD (logarithmic mean adherence of LAB per 50 VEC): 16.4 ± 4.0
[2]; [12]
  % VEC ADH: 100%
  Range (adhered LAB per VEC): 1-122 LAB per VEC
  X ± 1 STD (logarithmic mean adherence of LAB per 50 VEC): 14.1 ± 2.3
[2]; [13]
  Overall Averages # LAB/VEC: 22.1 LAB/VEC
  Overall Averages % Adherence: 77.6%
[2]; [14]
  Range (adhered LAB per VEC): 14-200 LAB per VEC
  X ± 1 STD (logarithmic mean adherence of LAB per 50 VEC): 96.1 ± 2.3
[2]; [15]
  % VEC ADH: 100%
  X ± 1 STD (logarithmic mean adherence of LAB per 50 VEC): 58.9 ± 2.1
[2]; [16]
  % VEC ADH: 100%
  X ± 1 STD (logarithmic mean adherence of LAB per 50 VEC): 47.3 ± 2.5
[2]; [17]
  % VEC ADH: 100%
  X ± 1 STD (logarithmic mean adherence of LAB per 50 VEC): 19.4 ± 3.9
[2]; [18]
  % VEC ADH: 100%
  X ± 1 STD (logarithmic mean adherence of LAB per 50 VEC): 21.4 ± 2.5
[2]; [19]
  % VEC ADH: 38%
  Range (adhered LAB per VEC): 0-11 LAB per VEC
  X ± 1 STD (logarithmic mean adherence of LAB per 50 VEC): 1.9 ± 2.1
[2]; [20]
  % VEC ADH: 200%
  X ± 1 STD (logarithmic mean adherence of LAB per 50 VEC): 60.9 ± 2.1
[2]; [21]
  Overall Averages # LAB/VEC: 43.7 LAB/VEC
  Overall Averages % Adherence: 91.1%
[2]; [22]
  % VEC ADH: 46%
  X ± 1 STD (logarithmic mean adherence of LAB per 50 VEC): 6.4 ± 3.9
[2]; [23]
  % VEC ADH: 38%
  X ± 1 STD (logarithmic mean adherence of LAB per 50 VEC): 3.1 ± 3.2
[2]; [24]
  % VEC ADH: 98%
  X ± 1 STD (logarithmic mean adherence of LAB per 50 VEC): 10.9 ± 3.6
[2]; [25]
  % VEC ADH: 72%
  Range (adhered LAB per VEC): 0-178 LAB per VEC
  X ± 1 STD (logarithmic mean adherence of LAB per 50 VEC): 7.1 ± 3.5
[2]; [26]
  % VEC ADH: 99%
  Range (adhered LAB per VEC): 0-56 LAB per VEC
  X ± 1 STD (logarithmic mean adherence of LAB per 50 VEC): 6.5 ± 3.0
[2]; [27]
  % VEC ADH: 60%
  X ± 1 STD (logarithmic mean adherence of LAB per 50 VEC): 7.3 ± 4.7
[2]; [28]
  % VEC ADH: 100%
  Range (adhered LAB per VEC): 1-96 LAB per VEC
  X ± 1 STD (logarithmic mean adherence of LAB per 50 VEC): 5.7 ± 2.8
[2]; [29]
  % VEC ADH: 92%
  Range (adhered LAB per VEC): 0-96 LAB per VEC
  X ± 1 STD (logarithmic mean adherence of LAB per 50 VEC): 7.8 ± 3.1
[2]; [30]
  % VEC ADH: 80%
  X ± 1 STD (logarithmic mean adherence of LAB per 50 VEC): 6.9 ± 3.3
[2]; [31]
  % VEC ADH: 100%
  Range (adhered LAB per VEC): 1-66 LAB per VEC
  X ± 1 STD (logarithmic mean adherence of LAB per 50 VEC): 15.9 ± 3.1
[2]; [32]
  Overall Averages # LAB/VEC: 7.76 LAB/VEC
  Overall Averages % Adherence: 78.4%
[2]; cells stored at refrigerated temperatures
  average adherence value: 24.3 cells/VEC
[2]; frozen VECs, McIlvaines Buffer pH 4.5
  adherence of inactive (preserved state) cells compared with metabolically active cells: equally well or better
[2]; room temperature stored cells
  average adherence value: 21.9 cells/VEC
[2]; stored at refrigerated temperature
  percent VEC cohesion value, average: 97.75%
[2]; stored at room temperature
  percent VEC cohesion value, average: 97%
